Source: article PMC9025555, “Chiral Recognition R- and RS- of New Antifungal: Complexation/Solubilization/Dissolution Thermodynamics and Permeability Assay” (Pharmaceutics, 2022)

What was measured:
[1] = Thermodynamics of complexation, solubilization and inherent dissolution (mole fraction scale); assay type: physicochemical; conditions: for Gibbs free energy of transfer from pure buffer pH 2.0 to CD solution: Eq. (10)
Protocol: The Gibbs energy change of the inherent (in pure aqueous buffer without CD) dissolution ( ΔGinh/sol0,X ) in mole fraction scale was derived from the compound mole fraction solubility ( X20 ) in the following way:(8) ΔGinh/sol0,X=−RTlnX20
The standard solution enthalpies ΔHinh/sol0,X and entropies ΔSinh/sol0,X were calculated using a linear dependence between lnX20 and 1/T and van’t Hoff equation:(9) lnX20=−ΔHinh/sol0,X/RT+ΔSinh/sol0,X/R
The free energy of transferring a compound from the aqueous buffer solution to the CD solution of a certain CD concentration ( CCD ) (corresponds to solubilization process) was calculated by Equation (10):(10) ΔGslbz0,X(CCD)=−RTlnX2/X20, where X20 is the inherent solubility of the drug in mole fraction in the absence of CD at temperature T, and X2 is the total solubility in the presence of CD at the same temperature, R is the universal gas constant. The solubilization enthalpy ( ΔHslbz0,X(CCD) ) and entropy ( TΔSslbz0,X(CCD) ) were derived as follows:(11) ΔHslbz0,X(CCD)=ΔHsol0,X(CCD)−ΔHsol0,X (12) TΔSslbz0,X(CCD)=TΔSsol0,X(CCD)−TΔSsol0,X where ΔHsol0,X and ΔSsol0,X are the enthalpy and entropy of solubility process of the investigated compounds in the absence of CD, whereas ΔHsol0,X(CCD) and ΔSsol0,X(CCD) are the enthalpy and entropy of solubility process in the presence of CD with concentration CCD .
In order to determine the thermodynamic parameters of the complex formation for the compounds with CD, the stability constants ( KCX , mole fraction scale) at different temperatures were obtained using the phase diagrams and mole fractions ( X20 ) (analogously to Equation (3) by the following equation:(13) KCX=slope/X20⋅(1−slope),
Respectively, the Gibbs energy of the complexation in mole fraction scale ( ΔGC0,X ) was derived from the stability constants ( KCX ) in the following way:(14) ΔGC0,X=−RTlnKCX
The thermodynamic parameters of the complexation, i.e., the standard enthalpy change ( ΔHC0,X ) and the standard entropy change ( ΔSC0,X ) were calculated with the help of the integral form of the van’t Hoff’s equation:(15) lnKCX=−ΔHC0,X/RT+ΔSC0,X/R where a plot of lnKCX versus 1/T produces Slope = −ΔHC0,X/R and intercept equal to ΔSC0,X/R .
In order to understand the contribution of the hydrophobic effect (desolvation) to the complexation process on a relative scale, the approach disclosing the correlation of the free energy of complex formation with the free energy of the substance solubility in the same buffer solution proposed by Al Omari et al. was applied. To this end, the Gibbs energy of complex formation ( ΔGCT,X ) and inherent dissolution ( ΔGinh/solT,X ) in mole fraction scale were used. A linear correlation between ΔGCT,X and ΔGsolT,X results in Equation (16):(16) ΔGCT,X=a⋅ΔGinh/solT,X+b where the slope (a) is the magnitude of the hydrophobic effect, and the intercept (b) is the structural factor. […]

in vitro = in vitro ADME
Protocol: Permeability coefficients of RS-186 and R-98 were measured through the PermeaPad barrier (PHABIOC, Germany, Espelkamp, www.permeapad.com, accessed on 20 May 2021) of an effective surface area of 0.785 cm^2 in a vertical type of Franz diffusion cell (PermeGear, Inc., Hellertown, PA, USA) with 7 mL volume. PermeaPad is a biomimetic membrane proposed by di Cagno and Bauer-Brandl for the fast screening of the permeability of the marketed drugs and drug-like compounds. In brief, the barrier was mounted between the donor and receptor chambers. The donor chamber was filled with a stock solution of the investigated substance in buffer solution at pH 2.0 or pH 7.4 and was stirred vigorously during the permeability experiment. The receptor compartment contained 1 mL of the respective fresh buffer. The system was thermostated at 310.15 ± 0.1 K. A probe of 0.5 mL was withdrawn every 30 min from the receptor chamber and replaced with an equal amount of the respective fresh buffer. The permeation process followed the reverse dialysis. The withdrawn samples were analyzed in 96-well UV black plate (Costar) via spectrophotometer (Spectramax 190; Molecular devices, Molecular Devices Corporation, California, CA, USA) at the appropriate wavelength. The permeation profiles were plotted as the amount of the permeated drug over the surface area ( dQ/A ) versus the time ( t ). The flux ( J ) was calculated as a slope of permeation profiles according to the equation:(6) J=dQ/A×dt
The apparent permeability coefficient ( Papp ) was calculated by normalizing the flux measured over the concentration of the drug in the donor compartment ( C0 ), as described by the equation:(7) Papp=J/Co
Each permeability experiment was repeated at least 3 times and the average value of Papp was determined.

[2] = buffer pH 2.0, 298.15 K, mole fraction scale
[3] = buffer pH 2.0 without CD, 298.15 K, mole fraction scale

For `O=C1S/C(=C\c2ccc(Cl)cc2)C(=O)N1CC(O)CN1CCN(CC(O)(Cn2cncn2)c2ccc(F)cc2F)CC1` (stereo not drawn) [RS-186, (Z)-5-(4-chlorobenzylidene)-3-(3-(4-(2-(2,4-difluorophenyl)-2-hydroxy-3-(1H-1,2,4-triazol-1-yl)propyl)piperazin-1-yl)-2-hydroxypropyl)thiazolidine-2,4-dione], the “Gibbs free energy of transfer from pure buffer pH 2.0 to CD solution” value (“Gibbs free energy of transfer” for short) ([1]; CCD 0.01, 298.15 K) was -4.73, the “Gibbs free energy of transfer” value ([1]; CCD 0.01, 303.15 K) was -4.83 and the “Gibbs free energy of transfer” value ([1]; CCD 0.01, 310.15 K) was -5.12. For the same compound, the “Gibbs free energy of transfer” value ([1]; CCD 0.01, 313.15 K) was -5.43, the “Gibbs free energy of transfer” value ([1]; CCD 0.03, 298.15 K) was -6.90 and the “Gibbs free energy of transfer” value ([1]; CCD 0.03, 303.15 K) was -7.10. The “Gibbs free energy of transfer” value ([1]; CCD 0.03, 310.15 K) was -7.36, the “Gibbs free energy of transfer” value ([1]; CCD 0.03, 313.15 K) was -7.66 and the “Gibbs free energy of transfer” value ([1]; CCD 0.04, 298.15 K) was -7.64. For the same compound, the “Gibbs free energy of transfer” value ([1]; CCD 0.04, 303.15 K) was -7.84, the “Gibbs free energy of transfer” value ([1]; CCD 0.04, 310.15 K) was -8.15 and the “Gibbs free energy of transfer” value ([1]; CCD 0.04, 313.15 K) was -8.52. The “Gibbs free energy of transfer” value ([1]; CCD 0.05, 298.15 K) was -8.22, the “Gibbs free energy of transfer” value ([1]; CCD 0.05, 303.15 K) was -8.43 and the “Gibbs free energy of transfer” value ([1]; CCD 0.05, 310.15 K) was -8.75. The “Gibbs free energy of transfer” value ([1]; CCD 0.05, 313.15 K) was -9.06, the “slope (a) of ΔGC versus ΔGsol correlation, magnitude of the hydrophobic effect” value ([1]; Equation (16), pH 2.0, mole fraction scale) was −0.611 and the “solubilization: change of the standard Gibbs energy (ΔGslbz0,X)” value ([1]; buffer pH 2.0, 298.15 K, calculated at maximal 0.05 M CD concentration) was -1.96 kcal/mol. For the same compound, the “change of the standard Gibbs energy of inclusion complex formation (ΔGC0,X)” value [1, 2] was -3.7 kcal/mol, the “enthalpy of inclusion complex formation (ΔHC0,X)” value [1, 2] was -2.22 ± 0.311 kcal/mol and the “entropy of inclusion complex formation (TΔSC0,X)” value [1, 2] was 1.48 ± 0.22 kcal/mol. The “solubilization entropy (TΔSslbz0,X)” value [1, 2] was 3.59 ± 0.789 kcal/mol, the “inherent solubility Gibbs energy (ΔGinh/sol0,X)” value [1, 3] was 7.17 kcal/mol and the “inherent solubility enthalpy (ΔHinh/sol0,X)” value [1, 3] was 4.54 ± 0.526 kcal/mol. The “inherent solubility entropy (TΔSinh/sol0,X)” value [1, 3] was -2.63 ± 0.359 kcal/mol, the “ratio |ΔHC0,X| > |TΔSC0,X|” value ([1]; complexation, pH 2.0, 298.15 K) was “about 1.5 fold” and the “Complexation constant (KCX)” value ([1]; mole fraction scale, buffer pH 2.0, 298.15 K) was 525.2 ± 52.9. For the same compound, the “contribution of the hydrophobic interactions to the driving force for complex stability” value ([1]; pH 2.0) was ~61%, the “permeability decrease up to 0.03 M concentration of CD in donor solution” value (in vitro; buffer pH 7.4) was 8.89 fold and the “permeability classification (developers of PermeaPad)” value (in vitro; in the presence of 0.01 M CD) was “low”. The “permeability reduction up to 0.03 M concentration of CD in donor solution” value (in vitro; pH 2.0) was 8.72 fold, the “Permeability Coefficient (Papp)” value (in vitro; pH 2.0, CD 0.01087 M, 310.15 K) was “(1.12 ± 0.09) × 10^−6 cm·s^−1” and the “permeability classification (developers of PermeaPad)” value (in vitro; pure buffers, classification of ref 18) was “medium permeable”.
